Like-named read-outs stand apart in the source and are kept apart here.
Experiments:
[1] = Degradability of amphidinol 18 in light at room temperature, HPLC (Example 4); type: physicochemical; conditions: product at one gram per liter in 70% ethanol
Source text: Regularly, the concentration of amphidinol 18 in the product according to the invention has been measured by high-performance liquid chromatography.

[2] = system: three strains of Brettanomyces bruxellensis; test: Growth of three Brettanomyces bruxellensis strains with product or inactivated product, optical density at 550 nm (Example 4); type: cell-based; conditions: conclusion from degradation and growth tests of Example 4
Method: Two replicas were made for each condition.
Yeast growth is measured by reading the optical density at 550 nanometers.

[3] = system: Brettanomyces bruxellensis NL6300; test: Minimum inhibitory concentration of peak 0 purified fraction, OD550 (Example 6); type: cell-based; conditions: all concentrations (40 to 5 ppm) except the 5 ppm concentration of AM18
Method: The minimum inhibitory concentration of peak 0 (purified fraction) was determined for two strains of Brettanomyces bruxellensis (NL6293 and NL6300) according to the protocol described in Example 2 and FIG. 1B.
OD550 nm at T=0 days, T=3 days and T=6 days was measured after incubation of yeasts at 28° C. in the presence of YPD medium alone (negative control), methanol or in the presence of peak 0 at dilutions ranging from 1:32 to 1:256 corresponding to concentrations of 40 to 5 ppm of amphidinol 18. The product according to the invention at 0.25 g/L was also tested (positive control). Two replicas were produced.

Saccharomyces cerevisiae [4] = test: Minimum inhibitory concentration of peak 0 purified fraction, OD550 (Example 7); type: cell-based; conditions: 40 and 20 ppm of AM18 (tested 40 to 5 ppm); 2.5·10^4 CFU/mL
Method: The minimum inhibitory concentration (MIC) of peak 0 described in FIG. 5D was determined for Saccharomyces cerevisiae according to the protocol described in Example 2 and FIG. 1B.
(§1) OD550 nm at 0, 3 and 6 days (T0, T3 and T6) was measured after incubation at 28° C. of yeasts at 2.5·10^4 CFU/mL in the presence of YPD medium alone (negative control), methanol (MEtOH) or in the presence of peak 0 at a dilution of 1:32 to 1:256 corresponding to concentrations of 40 to 5 ppm of amphidinol 18. The product according to the invention at 0.25 g/L was also tested under the same conditions. Two replicas (rep1 and rep2) were produced.

Acetobacter aceti = test: Minimum inhibitory concentration of peak 0 purified fraction, OD550 (Example 8); type: cell-based; conditions: 40, 20 and 10 pp: of AM18 (tested 40 to 5 ppm); MRS medium, 10^5 CFU/mL
Method: The minimum inhibitory concentration (MIC) of peak 0 described in FIG. 5D was determined for Acetobacter aceti according to the protocol described in Example 2 and FIG. 1B.
as §1, with “10^5” for “2.5·10^4”, “MRS” for “YPD”, “carried out.” for “produced.”

[5] = Degradation kinetics of amphidinol 18 in wine, HPLC (Example 10); type: physicochemical; conditions: product doses containing 60 ppm to 480 ppm amphidinol 18; up to day 44
Method: Different doses of the product according to the invention, containing from 60 ppm to 480 ppm of amphidinol 18, were inoculated in the wine. The amount of amphidinol 18 was determined by HPLC assay over time, up to day 44 (T44). The percentage of amphidinol 18 with respect to the initial dose was assessed over time.

Saccharomyces cerevisiae [6] = type: cell-based
Method: For this example, 10 mL of apple juice, grape juice or multifruit juice was inoculated with a strain of Saccharomyces cerevisiae at 60,000 cells per mL, that is a deposit of 17 μL of inoculum per 10 ml tube for Ci at T0=[…].
These inoculated juices were incubated statically at 20° C., under subdued light, after having been pre-treated as follows: • 1. Untreated (Negative control) • 2. […] Ethanol 2.37% • 4. Ethanol 4.74% • 5. 100 ppm Chitosan • 6. 9 ppm Amphidinol 18 (AM18) • 7. 18 ppm Amphidinol 18 (AM18) • 8. 36 ppm Amphidinol 18 (AM18)
The amphidinol concentration is obtained using the product according to the invention obtained from Example 1. The amount of product according to the invention is adjusted to obtain the desired amphidinol concentrations.
The biomass of Saccharomyces populations was measured by optical density reading at 600 nm.

For `C=C/C=C/CC/C=C/C=C/C=C/CC/C=C/[C@H](O)[C@H](O)[C@@H]1O[C@@H]([C@H](O)[C@H](O)C(=C)CC[C@@H](O)[C@H]2C[C@@H](O)[C@@H](O)[C@H]([C@@H](O)[C@H](O)/C=C(\C)CCC(O)CC(O)C(O)C(C)CC(O)C(O)CC(C)CCC(O)CC(=O)CC(O)CCCC(O)CCCCC(O)CO)O2)C[C@@H](O)[C@H]1O` (stereo partly drawn) [amphidinol 18], which “amphidinol 18 concentration of the product” value ([1]; T=0 days) is on record?
The value was 24 mg/L.

What about the “amphidinol 18 concentration of the product” value ([1]; T=120 days) of the same molecule?
The value was roughly 0 mg/L.

What about the “effectiveness for controlling and/or limiting the growth of Brettanomyces bruxellensis” value [2] of the same molecule?
The value was “particularly effective”.

What about the “effectiveness against strain NL6300” value [3] of the same molecule?
The value was “effective”.

And the “effectiveness against Saccharomyces cerevisiae” value (Saccharomyces cerevisiae [4])?
The value was “effective”.

And the “effectiveness against Acetobacter aceti” value (Acetobacter aceti)?
Its value is “effective”.

And the “degradation of amphidinol 18 in wine” value [5]?
The value was “degrades steadily”.

And the “growth of Saccharomyces populations” value (Saccharomyces cerevisiae [6]; 3 types of fruit juice)?
Its value is “completely preventing the growth”.

What about the “Average D0, optical density at 600 nm” value (Saccharomyces cerevisiae [6]; Apple juice, 9 ppm AM18) of the same molecule?
The value was −0.1305.

What about the “Average D1, optical density at 600 nm” value (Saccharomyces cerevisiae [6]; Apple juice, 9 ppm AM18) of the same molecule?
The value was −0.1655.

And the “Average D2, optical density at 600 nm” value (Saccharomyces cerevisiae [6]; Apple juice, 9 ppm AM18)?
The value was 0.1385.

And the “Average D3, optical density at 600 nm” value (Saccharomyces cerevisiae [6]; Apple juice, 9 ppm AM18)?
The value was 0.6495.

And the “Average D0, optical density at 600 nm” value (Saccharomyces cerevisiae [6]; Apple juice, 18 ppm AM18)?
The value was 0.0835.

And the “Average D1, optical density at 600 nm” value (Saccharomyces cerevisiae [6]; Apple juice, 18 ppm AM18)?
Its value is 0.0055.

And the “Average D2, optical density at 600 nm” value (Saccharomyces cerevisiae [6]; Apple juice, 18 ppm AM18)?
The value was −0.0505.

What about the “Average D3, optical density at 600 nm” value (Saccharomyces cerevisiae [6]; Apple juice, 18 ppm AM18) of the same molecule?
The value was −0.091.

And the “Average D0, optical density at 600 nm” value (Saccharomyces cerevisiae [6]; Apple juice, 36 ppm AM18)?
Its value is −0.012.

What about the “Average D1, optical density at 600 nm” value (Saccharomyces cerevisiae [6]; Apple juice, 36 ppm AM18) of the same molecule?
Its value is −0.007.

What about the “Average D2, optical density at 600 nm” value (Saccharomyces cerevisiae [6]; Apple juice, 36 ppm AM18) of the same molecule?
The value was −0.062.

And the “Average D3, optical density at 600 nm” value (Saccharomyces cerevisiae [6]; Apple juice, 36 ppm AM18)?
The value was 0.3515.

What about the “Average D0, optical density at 600 nm” value (Saccharomyces cerevisiae [6]; Grape juice, 9 ppm AM18) of the same molecule?
Its value is 0.0755.

What about the “Average D1, optical density at 600 nm” value (Saccharomyces cerevisiae [6]; Grape juice, 9 ppm AM18) of the same molecule?
Its value is 0.0375.

What about the “Average D2, optical density at 600 nm” value (Saccharomyces cerevisiae [6]; Grape juice, 9 ppm AM18) of the same molecule?
The value was 0.0315.

What about the “Average D3, optical density at 600 nm” value (Saccharomyces cerevisiae [6]; Grape juice, 9 ppm AM18) of the same molecule?
Its value is −0.084.

What about the “Average D0, optical density at 600 nm” value (Saccharomyces cerevisiae [6]; Grape juice, 18 ppm AM18) of the same molecule?
Its value is 0.2065.

And the “Average D1, optical density at 600 nm” value (Saccharomyces cerevisiae [6]; Grape juice, 18 ppm AM18)?
The value was 0.175.

What about the “Average D2, optical density at 600 nm” value (Saccharomyces cerevisiae [6]; Grape juice, 18 ppm AM18) of the same molecule?
Its value is 0.154.

What about the “Average D3, optical density at 600 nm” value (Saccharomyces cerevisiae [6]; Grape juice, 18 ppm AM18) of the same molecule?
Its value is 0.0515.

What about the “Average D0, optical density at 600 nm” value (Saccharomyces cerevisiae [6]; Grape juice, 36 ppm AM18) of the same molecule?
Its value is −0.1485.

And the “Average D1, optical density at 600 nm” value (Saccharomyces cerevisiae [6]; Grape juice, 36 ppm AM18)?
The value was −0.174.

And the “Average D2, optical density at 600 nm” value (Saccharomyces cerevisiae [6]; Grape juice, 36 ppm AM18)?
Its value is −0.2285.

And the “Average D3, optical density at 600 nm” value (Saccharomyces cerevisiae [6]; Grape juice, 36 ppm AM18)?
The value was −0.2465.

And the “Average D0, optical density at 600 nm” value (Saccharomyces cerevisiae [6]; Multifruit juice, 9 ppm AM18)?
Its value is −0.006.

And the “Average D1, optical density at 600 nm” value (Saccharomyces cerevisiae [6]; Multifruit juice, 9 ppm AM18)?
Its value is −0.028.

What about the “Average D2, optical density at 600 nm” value (Saccharomyces cerevisiae [6]; Multifruit juice, 9 ppm AM18) of the same molecule?
The value was −0.0705.

And the “Average D3, optical density at 600 nm” value (Saccharomyces cerevisiae [6]; Multifruit juice, 9 ppm AM18)?
Its value is 0.0995.

And the “Average D0, optical density at 600 nm” value (Saccharomyces cerevisiae [6]; Multifruit juice, 18 ppm AM18)?
Its value is 0.002.

What about the “Average D1, optical density at 600 nm” value (Saccharomyces cerevisiae [6]; Multifruit juice, 18 ppm AM18) of the same molecule?
The value was −0.0365.

And the “Average D2, optical density at 600 nm” value (Saccharomyces cerevisiae [6]; Multifruit juice, 18 ppm AM18)?
Its value is −0.0155.

And the “Average D3, optical density at 600 nm” value (Saccharomyces cerevisiae [6]; Multifruit juice, 18 ppm AM18)?
Its value is 0.033.

And the “Average D0, optical density at 600 nm” value (Saccharomyces cerevisiae [6]; Multifruit juice, 36 ppm AM18)?
The value was −0.009.

And the “Average D1, optical density at 600 nm” value (Saccharomyces cerevisiae [6]; Multifruit juice, 36 ppm AM18)?
The value was 0.034.

What about the “Average D2, optical density at 600 nm” value (Saccharomyces cerevisiae [6]; Multifruit juice, 36 ppm AM18) of the same molecule?
The value was 0.008.

What about the “Average D3, optical density at 600 nm” value (Saccharomyces cerevisiae [6]; Multifruit juice, 36 ppm AM18) of the same molecule?
Its value is 0.018.

For `CCO` [Ethanol, reference compound], which yeast population growth (Saccharomyces cerevisiae [6]) is on record?
The yeast population growth was “no yeast population growth”.
